Columns and labels:
Assay type in all cases: cell-based
Actinomyces naeslundii = experiment: Biofilm growth assay in BHI, crystal violet; details: control = 1
Procedure: (§1) The increase in biofilm formation of the tested bacteria in response to selected compounds (Met-Pro, Phe-Glu) was investigated by setting up biofilm growth assays in a nutritionally rich medium (brain heart infusion broth (BHI), Oxoid), over 48 hours. Late exponential growth phase liquid cultures were prepared by transferring the respective bacterium from blood agar plates to BHI and overnight incubation at 37° C. in an anaerobic atmosphere for A. viscosus, V. parvula, F. nucleatum, P. gingivalis, P. intermedia, T. forsythia, A. naeslundii, and C. sputigena, and in a 5% CO2 environment for S. salivarius, S. sanguinis, S. mitis, A. actinomycetemcomitans, S. mutans, and S. gordonii. Overnight cultures were transferred to BHI and adjusted to a concentration of 1×10^7 CFU/ml by measuring the optical density at 600 nm (OD600) (BioRad SmartSpec 3000). For each strain, 200 μl of the bacterial suspension was added to a 96-well plate containing 20 μl of the respective di-peptides. Final concentrations of the di-peptides were set to 5, 10, 20 and 25 μmol/ml. […] Additionally, for each bacterium tested, a background control, to correct for background staining, was added. This background control contained the bacterium tested and 0.03 weight % chlorhexidine, as an antiseptic. Plates were incubated as previously described. After 48 hrs the supernatant was removed from the wells of the plates. The wells were washed twice with 1×100 μL PBS (phosphate buffered saline), fixed for 20 minutes with 96% vol. ethanol (96% vol. solution in water) and the biofilm retained at the bottom of the wells was stained with 1 weight % crystal violet (1 weight % solution in water). The bound dye was dissolved with 5% vol. acetic acid (5% vol. solution in water). Quantification of the stained biofilm was performed by measuring the absorbance at 630 nm using a Multiskan Ascent microplate reader (Thermo Scientific).
(§2) The experiment was carried out on three different days (thus providing 3 biological replicas) and each day the experiment was carried out in quadruple (thus providing 4 technical replicas) for each combination of bacterium with dipeptide and for each control. For each day and for each combination, the average (mean) of the values obtained (as detailed above) for the four technical replicas was calculated to provide a single value for each combination on each day. The values shown in Tables 7 to 8, below, are the average (mean) of the three single values obtained for each combination of bacterium with dipeptide.

Actinomyces viscosus = experiment: Biofilm growth assay in BHI, crystal violet; details: control = 1
Procedure: as §1, §2

[1] = system: Aggregatibacter actinomycetemcomitans; experiment: Biofilm growth assay in BHI, crystal violet; details: control = 1
Procedure: as §1, §2

Capnocytophaga sputigena = experiment: Biofilm growth assay in BHI, crystal violet; details: control = 1
Procedure: as §1, §2

Fusobacterium nucleatum = experiment: Biofilm growth assay in BHI, crystal violet; details: control = 1
Procedure: as §1, §2

Porphyromonas gingivalis = experiment: Biofilm growth assay in BHI, crystal violet; details: control = 1
Procedure: as §1, §2

Prevotella intermedia = experiment: Biofilm growth assay in BHI, crystal violet; details: control = 1
Procedure: as §1, §2

Streptococcus gordonii = experiment: Biofilm growth assay in BHI, crystal violet; details: control = 1
Procedure: as §1, §2

Streptococcus mitis = experiment: Biofilm growth assay in BHI, crystal violet; details: control = 1
Procedure: as §1, §2

Streptococcus mutans = experiment: Biofilm growth assay in BHI, crystal violet; details: control = 1
Procedure: as §1, §2

Streptococcus salivarius = experiment: Biofilm growth assay in BHI, crystal violet; details: control = 1
Procedure: as §1, §2

Streptococcus sanguinis = experiment: Biofilm growth assay in BHI, crystal violet; details: control = 1
Procedure: as §1, §2

Tannerella forsythia = experiment: Biofilm growth assay in BHI, crystal violet; details: control = 1
Procedure: as §1, §2

Veillonella parvula = experiment: Biofilm growth assay in BHI, crystal violet; details: control = 1
Procedure: as §1, §2

[2] = system: beneficial oral bacteria and pathogenic oral bacteria; experiment: Biofilm growth, whole panel: prebiotic effect; details: threshold value of 1.6
Procedure: Substrates that were able to increase the biofilm mass of at least one of the above beneficial bacteria while not or only minimally increasing the biofilm mass of the pathogenic bacteria are considered to be prebiotic compounds.
as §1, §2
This value was selected in order to exclude low-stimulating metabolites and avoid false positive results.

## Met-Pro
Actinomyces naeslundii; 5 μmol/ml
  biofilm growth: OD 630 nm (crystal violet) at 48 hrs divided by OD of control: 1.1703
Actinomyces naeslundii; 10 μmol/ml
  biofilm growth: OD 630 nm (crystal violet) at 48 hrs divided by OD of control: 0.9986
Actinomyces naeslundii; 20 μmol/ml
  biofilm growth: OD 630 nm (crystal violet) at 48 hrs divided by OD of control: 0.4130
Actinomyces naeslundii; 25 μmol/ml
  biofilm growth: OD 630 nm (crystal violet) at 48 hrs divided by OD of control: 0.1281
Actinomyces viscosus; 5 μmol/ml
  biofilm growth: OD 630 nm (crystal violet) at 48 hrs divided by OD of control: 0.4286
Actinomyces viscosus; 10 μmol/ml
  biofilm growth: OD 630 nm (crystal violet) at 48 hrs divided by OD of control: 0.4021
Actinomyces viscosus; 20 μmol/ml
  biofilm growth: OD 630 nm (crystal violet) at 48 hrs divided by OD of control: 0.1766
Actinomyces viscosus; 25 μmol/ml
  biofilm growth: OD 630 nm (crystal violet) at 48 hrs divided by OD of control: 0.0355
[1]; 5 μmol/ml
  biofilm growth: OD 630 nm (crystal violet) at 48 hrs divided by OD of control: 0.8177
[1]; 10 μmol/ml
  biofilm growth: OD 630 nm (crystal violet) at 48 hrs divided by OD of control: 0.5095
[1]; 20 μmol/ml
  biofilm growth: OD 630 nm (crystal violet) at 48 hrs divided by OD of control: 0.2556
[1]; 25 μmol/ml
  biofilm growth: OD 630 nm (crystal violet) at 48 hrs divided by OD of control: 0.1103
Capnocytophaga sputigena; 5 μmol/ml
  biofilm growth: OD 630 nm (crystal violet) at 48 hrs divided by OD of control: 0.2411
Capnocytophaga sputigena; 10 μmol/ml
  biofilm growth: OD 630 nm (crystal violet) at 48 hrs divided by OD of control: 0.1949
Capnocytophaga sputigena; 20 μmol/ml
  biofilm growth: OD 630 nm (crystal violet) at 48 hrs divided by OD of control: 0.1660
Capnocytophaga sputigena; 25 μmol/ml
  biofilm growth: OD 630 nm (crystal violet) at 48 hrs divided by OD of control: 0.0138
Fusobacterium nucleatum; 5 μmol/ml
  biofilm growth: OD 630 nm (crystal violet) at 48 hrs divided by OD of control: 0.6087
Fusobacterium nucleatum; 10 μmol/ml
  biofilm growth: OD 630 nm (crystal violet) at 48 hrs divided by OD of control: 0.5568
Fusobacterium nucleatum; 20 μmol/ml
  biofilm growth: OD 630 nm (crystal violet) at 48 hrs divided by OD of control: 0.6796
Fusobacterium nucleatum; 25 μmol/ml
  biofilm growth: OD 630 nm (crystal violet) at 48 hrs divided by OD of control: 0.5216
Porphyromonas gingivalis; 5 μmol/ml
  biofilm growth: OD 630 nm (crystal violet) at 48 hrs divided by OD of control: 0.6831
Porphyromonas gingivalis; 10 μmol/ml
  biofilm growth: OD 630 nm (crystal violet) at 48 hrs divided by OD of control: 0.7344
Porphyromonas gingivalis; 20 μmol/ml
  biofilm growth: OD 630 nm (crystal violet) at 48 hrs divided by OD of control: 0.8922
Porphyromonas gingivalis; 25 μmol/ml
  biofilm growth: OD 630 nm (crystal violet) at 48 hrs divided by OD of control: 0.4990
Prevotella intermedia; 5 μmol/ml
  biofilm growth: OD 630 nm (crystal violet) at 48 hrs divided by OD of control: 1.2520
Prevotella intermedia; 10 μmol/ml
  biofilm growth: OD 630 nm (crystal violet) at 48 hrs divided by OD of control: 0.9773
Prevotella intermedia; 20 μmol/ml
  biofilm growth: OD 630 nm (crystal violet) at 48 hrs divided by OD of control: 0.2095
Prevotella intermedia; 25 μmol/ml
  biofilm growth: OD 630 nm (crystal violet) at 48 hrs divided by OD of control: 0.1148
Streptococcus gordonii; 5 μmol/ml
  biofilm growth: OD 630 nm (crystal violet) at 48 hrs divided by OD of control: 1.4212
Streptococcus gordonii; 10 μmol/ml
  biofilm growth: OD 630 nm (crystal violet) at 48 hrs divided by OD of control: 1.8572
Streptococcus gordonii; 20 μmol/ml
  biofilm growth: OD 630 nm (crystal violet) at 48 hrs divided by OD of control: 1.6395
Streptococcus gordonii; 25 μmol/ml
  biofilm growth: OD 630 nm (crystal violet) at 48 hrs divided by OD of control: 1.4372
Streptococcus mitis; 5 μmol/ml
  biofilm growth: OD 630 nm (crystal violet) at 48 hrs divided by OD of control: 1.3974
Streptococcus mitis; 10 μmol/ml
  biofilm growth: OD 630 nm (crystal violet) at 48 hrs divided by OD of control: 1.4008
Streptococcus mitis; 20 μmol/ml
  biofilm growth: OD 630 nm (crystal violet) at 48 hrs divided by OD of control: 0.2959
Streptococcus mitis; 25 μmol/ml
  biofilm growth: OD 630 nm (crystal violet) at 48 hrs divided by OD of control: 0.0464
Streptococcus mutans; 5 μmol/ml
  biofilm growth: OD 630 nm (crystal violet) at 48 hrs divided by OD of control: 0.0252
Streptococcus mutans; 10 μmol/ml
  biofilm growth: OD 630 nm (crystal violet) at 48 hrs divided by OD of control: 0.0118
Streptococcus mutans; 20 μmol/ml
  biofilm growth: OD 630 nm (crystal violet) at 48 hrs divided by OD of control: 0.9625
Streptococcus mutans; 25 μmol/ml
  biofilm growth: OD 630 nm (crystal violet) at 48 hrs divided by OD of control: 1.3235
Streptococcus salivarius; 5 μmol/ml
  biofilm growth: OD 630 nm (crystal violet) at 48 hrs divided by OD of control: 0.8003
Streptococcus salivarius; 10 μmol/ml
  biofilm growth: OD 630 nm (crystal violet) at 48 hrs divided by OD of control: 0.9847
Streptococcus salivarius; 20 μmol/ml
  biofilm growth: OD 630 nm (crystal violet) at 48 hrs divided by OD of control: 1.0385
Streptococcus salivarius; 25 μmol/ml
  biofilm growth: OD 630 nm (crystal violet) at 48 hrs divided by OD of control: 1.4734
Streptococcus sanguinis; 5 μmol/ml
  biofilm growth: OD 630 nm (crystal violet) at 48 hrs divided by OD of control: 1.1768
Streptococcus sanguinis; 10 μmol/ml
  biofilm growth: OD 630 nm (crystal violet) at 48 hrs divided by OD of control: 1.7015
Streptococcus sanguinis; 20 μmol/ml
  biofilm growth: OD 630 nm (crystal violet) at 48 hrs divided by OD of control: 2.1767
Streptococcus sanguinis; 25 μmol/ml
  biofilm growth: OD 630 nm (crystal violet) at 48 hrs divided by OD of control: 1.6580
Tannerella forsythia; 5 μmol/ml
  biofilm growth: OD 630 nm (crystal violet) at 48 hrs divided by OD of control: 0.4857
Tannerella forsythia; 10 μmol/ml
  biofilm growth: OD 630 nm (crystal violet) at 48 hrs divided by OD of control: 0.4691
Tannerella forsythia; 20 μmol/ml
  biofilm growth: OD 630 nm (crystal violet) at 48 hrs divided by OD of control: 0.2726
Tannerella forsythia; 25 μmol/ml
  biofilm growth: OD 630 nm (crystal violet) at 48 hrs divided by OD of control: 0.1909
Veillonella parvula; 5 μmol/ml
  biofilm growth: OD 630 nm (crystal violet) at 48 hrs divided by OD of control: 0.2845
Veillonella parvula; 10 μmol/ml
  biofilm growth: OD 630 nm (crystal violet) at 48 hrs divided by OD of control: 0.2886
Veillonella parvula; 20 μmol/ml
  biofilm growth: OD 630 nm (crystal violet) at 48 hrs divided by OD of control: 0.1745
Veillonella parvula; 25 μmol/ml
  biofilm growth: OD 630 nm (crystal violet) at 48 hrs divided by OD of control: 0.2121
[2]; 10 μmol/ml
  prebiotic effects (biofilm growth): exhibited prebiotic effects
[2]; 20 μmol/ml
  prebiotic effects (biofilm growth): exhibited prebiotic effects
[2]; 25 μmol/ml
  prebiotic effects (biofilm growth): exhibited prebiotic effects
